Source: patent US10479780B2, “Aminopyrazole derivatives” (Chugai Seiyaku Kabushiki Kaisha, priority 2015, dated 2019)
pIC50: −log10 of the molar value.

Tests used:
Format in all cases: biochemical
human Src enzyme = molecular target: T1, human Src enzyme (Homo sapiens, UniProt P12931); assay: Src enzyme inhibitory activity (time-resolved fluorometry, biotinylated peptide phosphorylation); conditions: read-out: SRC_IC50
T1 construct: purchased Carna Biosciences, Inc. 08-173
Summary of the method: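 Compounds were tested for blocking tyrosine phosphorylation of a biotinylated peptide substrate by recombinant human Src. Phosphorylated product was quantified by time-resolved fluorometry using europium cryptate and XL665 conjugates, and IC50 was calculated against the compound-free control.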

human Yes1 enzyme = molecular target: T2, human Yes1 enzyme (Homo sapiens, UniProt P07947); assay: Yes1 enzyme inhibitory activity (time-resolved fluorometry, biotinylated peptide phosphorylation); conditions: read-out: YES_IC50
T2 construct: made in house
Summary of the method: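 Inhibition was expressed against a compound-free control to give IC50, using TR-FRET read-out (Eu-cryptate anti-pTyr antibody, streptavidin-XL665).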

human Lck enzyme = molecular target: T3, human Lck enzyme (Homo sapiens, UniProt P06239); assay: Lck enzyme inhibitory activity (time-resolved fluorometry, biotinylated peptide phosphorylation); conditions: read-out: LCK_IC50
T3 construct: purchased Carna Biosciences, Inc. 08-170
Summary of the method: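 Readout pairs a europium cryptate-labelled anti-phosphotyrosine antibody with XL665-streptavidin, measured by time-resolved fluorescence. IC50 derived from percent inhibition against untreated controls.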

T3 sequence (P06239 whole entry): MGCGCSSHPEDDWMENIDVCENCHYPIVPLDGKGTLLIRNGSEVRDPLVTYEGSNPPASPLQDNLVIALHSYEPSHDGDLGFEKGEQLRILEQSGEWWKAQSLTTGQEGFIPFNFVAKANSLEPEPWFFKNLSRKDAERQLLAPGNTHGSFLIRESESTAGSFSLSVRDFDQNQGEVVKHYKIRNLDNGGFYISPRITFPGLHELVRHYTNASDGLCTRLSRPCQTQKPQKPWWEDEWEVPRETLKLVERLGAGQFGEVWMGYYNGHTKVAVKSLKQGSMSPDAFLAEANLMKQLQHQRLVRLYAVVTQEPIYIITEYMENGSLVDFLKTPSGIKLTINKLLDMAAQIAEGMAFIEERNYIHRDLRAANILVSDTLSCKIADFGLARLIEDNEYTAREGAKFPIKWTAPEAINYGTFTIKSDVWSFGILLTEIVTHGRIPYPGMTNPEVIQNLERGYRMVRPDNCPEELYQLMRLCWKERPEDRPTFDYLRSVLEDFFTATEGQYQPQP
T1 sequence (P12931 whole entry): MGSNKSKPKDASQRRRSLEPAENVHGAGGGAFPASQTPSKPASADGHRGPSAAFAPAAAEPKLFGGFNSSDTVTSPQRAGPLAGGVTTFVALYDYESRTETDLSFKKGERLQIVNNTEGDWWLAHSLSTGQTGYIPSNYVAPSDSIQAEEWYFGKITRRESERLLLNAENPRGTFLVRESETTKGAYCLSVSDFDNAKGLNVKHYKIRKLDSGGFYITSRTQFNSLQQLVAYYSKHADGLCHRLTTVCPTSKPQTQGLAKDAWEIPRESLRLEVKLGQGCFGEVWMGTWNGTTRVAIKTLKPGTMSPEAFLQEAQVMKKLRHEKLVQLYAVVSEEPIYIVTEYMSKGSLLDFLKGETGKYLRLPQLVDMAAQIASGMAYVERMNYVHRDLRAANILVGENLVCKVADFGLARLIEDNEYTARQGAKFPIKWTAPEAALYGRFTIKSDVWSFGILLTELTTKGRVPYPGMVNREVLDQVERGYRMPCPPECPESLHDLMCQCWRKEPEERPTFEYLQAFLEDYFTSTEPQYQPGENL
T2 sequence (P07947 whole entry): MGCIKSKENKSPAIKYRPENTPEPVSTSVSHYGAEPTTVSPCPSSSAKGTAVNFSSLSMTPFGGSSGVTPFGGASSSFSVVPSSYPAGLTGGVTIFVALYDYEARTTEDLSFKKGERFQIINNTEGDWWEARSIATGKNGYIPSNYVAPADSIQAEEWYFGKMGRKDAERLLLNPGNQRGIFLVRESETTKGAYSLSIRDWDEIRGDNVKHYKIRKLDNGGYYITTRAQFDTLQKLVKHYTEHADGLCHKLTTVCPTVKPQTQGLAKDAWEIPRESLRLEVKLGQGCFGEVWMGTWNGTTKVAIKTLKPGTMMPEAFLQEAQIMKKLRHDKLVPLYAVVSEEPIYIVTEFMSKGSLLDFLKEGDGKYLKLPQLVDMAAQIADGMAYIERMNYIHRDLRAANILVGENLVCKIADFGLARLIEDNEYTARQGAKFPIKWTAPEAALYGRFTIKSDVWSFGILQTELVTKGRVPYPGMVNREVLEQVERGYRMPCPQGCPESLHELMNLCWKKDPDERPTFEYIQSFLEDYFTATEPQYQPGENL

pIC50 (human Src enzyme)	pIC50 (human Yes1 enzyme)	pIC50 (human Lck enzyme)	SMILES
7.60	8.72	8.96	Cc1cc(Oc2c(F)cccc2F)ncc1-n1ncc(C(=O)c2cc3cc(F)c(-n4c(C)cc(=O)[nH]c4=O)cc3[nH]2)c1N [Example 5-1-101, 1-[2-[5-amino-1-[6-(2,6-difluorophenoxy)-4-methylpyridin-3-yl]pyrazole-4-carbonyl]-5-fluoro-1H-indol-6-yl]-6-methylpyrimidine-2,4-dione]
8.30	9.11	8.89	Cc1cc(Oc2c(F)cccc2F)ncc1-n1ncc(C(=O)c2cc3cc(F)c(NC4CN(S(C)(=O)=O)C4)cc3[nH]2)c1N [Example 5-1-102, [5-amino-1-[6-(2,6-difluorophenoxy)-4-methylpyridin-3-yl]pyrazol-4-yl]-[5-fluoro-6-[(1-methylsulfonylazetidin-3-yl)amino]-1H-indol-2-yl]methanone]
8.28	9.42	8.96	Cc1cc(Oc2ccccc2F)ccc1-n1ncc(C(=O)c2cc3cc(F)c(N4CCCC4=O)cc3[nH]2)c1N [Example 5-1-103, 1-[2-[5-amino-1-[4-(2-fluorophenoxy)-2-methylphenyl]pyrazole-4-carbonyl]-5-fluoro-1H-indol-6-yl]pyrrolidin-2-one]
8.01	9.20	8.96	Cc1cc(Oc2ccccc2F)ccc1-n1ncc(C(=O)c2cc3cc(F)c(-n4c(C)cc(=O)[nH]c4=O)cc3[nH]2)c1N [Example 5-1-104, 1-[2-[5-amino-1-[4-(2-fluorophenoxy)-2-methylphenyl]pyrazole-4-carbonyl]-5-fluoro-1H-indol-6-yl]-6-methylpyrimidine-2,4-dione]
8.44	9.11	8.80	Cc1cc(Oc2ccccc2F)ccc1-n1ncc(C(=O)c2cc3cc(N4CCOCC4)c(N4CCCC4=O)cc3[nH]2)c1N [Example 5-1-105, 1-[2-[5-amino-1-[4-(2-fluorophenoxy)-2-methylphenyl]pyrazole-4-carbonyl]-5-morpholin-4-yl-1H-indol-6-yl]pyrrolidin-2-one]
8.70	9.38	8.96	Cc1cc(Oc2ccccc2F)ccc1-n1ncc(C(=O)c2cc3cc(N4CCOCC4)c(N4CCOC4=O)cc3[nH]2)c1N [Example 5-1-106, 3-[2-[5-amino-1-[4-(2-fluorophenoxy)-2-methylphenyl]pyrazole-4-carbonyl]-5-morpholin-4-yl-1H-indol-6-yl]-1,3-oxazolidin-2-one]
7.02	8.82	8.10	Cc1cc2cc(C(=O)c3cnn(-c4ccc(Oc5cc(F)ccc5F)cc4C)c3N)[nH]c2cc1NS(C)(=O)=O [Example 5-1-107, N-[2-[5-amino-1-[4-(2,5-difluorophenoxy)-2-methylphenyl]pyrazole-4-carbonyl]-5-methyl-1H-indol-6-yl]methanesulfonamide]
7.68	9.24	8.77	Cc1cc2cc(C(=O)c3cnn(-c4ccc(Oc5ccccc5)cc4C)c3N)[nH]c2cc1NS(C)(=O)=O [Example 5-1-108, N-[2-[5-amino-1-(2-methyl-4-phenoxyphenyl)pyrazole-4-carbonyl]-5-methyl-1H-indol-6-yl] methanesulfonamide]
7.43	9.15	8.85	Cc1cc2cc(C(=O)c3cnn(-c4cnc(Oc5ccccc5)cc4C)c3N)[nH]c2cc1NS(C)(=O)=O [Example 5-1-109, N-[2-[5-amino-1-(4-methyl-6-phenoxypyridin-3-yl)pyrazole-4-carbonyl]-5-methyl-1H-indol-6-yl]methanesulfonamide]
7.17	8.11	8.00	Cc1cc2cc(C(=O)c3cnn(-c4c(C)cc(Oc5ccccc5F)cc4F)c3N)[nH]c2cc1NS(=O)(=O)CC(=O)N1CCCC1 [Example 5-1-110, N-[2-[5-amino-1-[2-fluoro-4-(2-fluorophenoxy)-6-methylphenyl]pyrazole-4-carbonyl]-5-methyl-1H-indol-6-yl]-2-oxo-2-pyrrolidin-1-ylethanesulfonamide]
7.34	7.85	7.85	Cc1cc2cc(C(=O)c3cnn(-c4c(C)cc(Oc5ccccc5F)cc4F)c3N)[nH]c2cc1C1CCN(S(C)(=O)=O)CC1 [Example 5-1-111, [5-amino-1-[2-fluoro-4-(2-fluorophenoxy)-6-methylphenyl]pyrazol-4-yl]-[5-methyl-6-(1-methylsulfonylpiperidin-4-yl)-1H-indol-2-yl] methanone]
7.59	9.09	8.77	Cc1cc(Oc2c(F)cccc2F)ncc1-n1ncc(C(=O)c2cc3cc(F)c(N4CCC(N5CCOCC5)CC4)cc3[nH]2)c1N [Example 5-1-112, [5-amino-1-[6-(2,6-difluorophenoxy)-4-methylpyridin-3-yl]pyrazol-4-yl]-[5-fluoro-6-(4-morpholin-4-ylpiperidin-1-yl)-1H-indol-2-yl] methanone]
7.39	8.41	8.48	Cc1cc(Oc2c(F)cccc2F)ncc1-n1ncc(C(=O)c2cc3cc(F)c(NC4CCN(S(C)(=O)=O)CC4)cc3[nH]2)c1N [Example 5-1-113, [5-amino-1-[6-(2,6-difluorophenoxy)-4-methylpyridin-3-yl]pyrazol-4-yl]-[5-fluoro-6-[(1-methylsulfonylpiperidin-4-yl)amino]-1H-indol-2-yl]methanone]
7.39	8.77	8.96	Cc1cc(Oc2c(F)cccc2F)ncc1-n1ncc(C(=O)c2cc3cc(F)c(N4C(=O)NC(C)(C)C4=O)cc3[nH]2)c1N [Example 5-1-114, 3-[2-[5-amino-1-[6-(2,6-difluorophenoxy)-4-methylpyridin-3-yl]pyrazole-4-carbonyl]-5-fluoro-1H-indol-6-yl]-5,5-dimethylimidazolidine-2,4-dione]
7.28	8.64	8.15	Cc1cc(Oc2c(F)cccc2F)ncc1-n1ncc(C(=O)c2cc3cc(F)c(N4C(=O)C(C)(C)NC4=S)cc3[nH]2)c1N [Example 5-1-115, 3-[2-[5-amino-1-[6-(2,6-difluorophenoxy)-4-methylpyridin-3-yl]pyrazole-4-carbonyl]-5-fluoro-1H-indol-6-yl]-5,5-dimethyl-2-sulfanylideneimidazolidin-4-one]
8.28	9.29	8.80	Cc1cc(Oc2ccccc2F)ccc1-n1ncc(C(=O)c2cc3cc(N4CCOCC4)c(-n4c(C)cc(=O)[nH]c4=O)cc3[nH]2)c1N [Example 5-1-116, 1-[2-[5-amino-1-[4-(2-fluorophenoxy)-2-methylphenyl]pyrazole-4-carbonyl]-5-morpholin-4-yl-1H-indol-6-yl]-6-methylpyrimidine-2,4-dione]
8.30	9.32	8.89	Cc1cc(Oc2ccccc2F)ccc1-n1ncc(C(=O)c2cc3cc(N4CCOCC4)c(N4C(=O)NC(C)(C)C4=O)cc3[nH]2)c1N [Example 5-1-117, 3-[2-[5-amino-1-[4-(2-fluorophenoxy)-2-methylphenyl]pyrazole-4-carbonyl]-5-morpholin-4-yl-1H-indol-6-yl]-5,5-dimethylimidazolidine-2,4-dione]
7.96	9.07	8.57	Cc1cc(Oc2ccccc2F)ccc1-n1ncc(C(=O)c2cc3cc(F)c(NC4CN(S(C)(=O)=O)C4)cc3[nH]2)c1N [Example 5-1-118]
7.82	8.74	8.32	Cc1cc(Oc2ccccc2F)ccc1-n1ncc(C(=O)c2cc3cc(F)c(N4CCOCC4)cc3[nH]2)c1N [Example 5-1-119, [5-amino-1-[4-(2-fluorophenoxy)-2-methylphenyl]pyrazol-4-yl]-(5-fluoro-6-morpholin-4-yl-1H-indol-2-yl)methanone]
7.64	9.37	8.21	Cc1cc(Oc2ccccc2F)ccc1-n1ncc(C(=O)c2cc3cc(N4CCOCC4)c(N4C(=O)C(C)(C)NC4=S)cc3[nH]2)c1N [Example 5-1-120, 3-[2-[5-amino-1-[4-(2-fluorophenoxy)-2-methylphenyl]pyrazole-4-carbonyl]-5-morpholin-4-yl-1H-indol-6-yl]-5,5-dimethyl-2-sulfanylideneimidazolidin-4-one]
7.05	8.77	7.85	Cc1cc2cc(C(=O)c3cnn(-c4cnc(Oc5ccccc5F)cc4C)c3N)[nH]c2cc1NS(=O)(=O)CC(=O)N1CCCC1 [Example 5-1-121, N-[2-[5-amino-1-[6-(2-fluorophenoxy)-4-methylpyridin-3-yl]pyrazole-4-carbonyl]-5-methyl-1H-indol-6-yl]-2-oxo-2-pyrrolidin-1-ylethanesulfonamide]
7.52	9.41	8.34	COc1cc2cc(C(=O)c3cnn(-c4ccc(Oc5ccccc5F)cc4C)c3N)[nH]c2cc1NS(=O)(=O)CC(=O)N1CCCC1 [Example 5-1-122, N-[2-[5-amino-1-[4-(2-fluorophenoxy)-2-methylphenyl]pyrazole-4-carbonyl]-5-methoxy-1H-indol-6-yl]-2-oxo-2-pyrrolidin-1-ylethanesulfonamide]
7.04	8.70	7.48	Cc1cc2cc(C(=O)c3cnn(-c4cnc(Oc5ccccc5F)cc4C)c3N)[nH]c2cc1C1CCN(S(=O)(=O)C2CC2)CC1 [Example 5-1-123, [5-amino-1-[6-(2-fluorophenoxy)-4-methylpyridin-3-yl]pyrazol-4-yl]-[6-(1-cyclopropylsulfonylpiperidin-4-yl)-5-methyl-1H-indol-2-yl]methanone]
